Here are results for 5 cell lines from the supplement of paper PMC10307832.

What all share (assay): relative viability (nuclei count vs DMSO), 5 days (fraction); higher = more cells survive
Compound in the experiment “Bemcentinib + Decitabine”: Nc1nc(Nc2ccc3c(c2)CC[C@@H](N2CCCC2)CC3)nn1-c1cc2c(nn1)-c1ccccc1CCC2 [Bemcentinib] + Nc1ncn([C@H]2C[C@H](O)[C@@H](CO)O2)c(=O)n1 [Decitabine] (partner 2 µM)
The procedure, abridged: (§1)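 Medians of duplicate plates are given as relative viability. That measure is the nuclei count in treated wells divided by the count in vehicle wells. Counts were taken on 4× images of lung cancer cell lines in 1536-well plates, 5 days after pin-tool dosing the day after seeding with one drug alone or a fixed anchor-drug dose plus five library-drug doses (not always all listed) in √10 steps.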

Compound in the experiment “Axitinib + AZD7762”: CNC(=O)c1ccccc1Sc1ccc2c(/C=C/c3ccccn3)n[nH]c2c1 [Axitinib] + NC(=O)Nc1cc(-c2cccc(F)c2)sc1C(=O)N[C@H]1CCCNC1 [AZD7762] (partner 0.2 µM)
The procedure, abridged:
as §1

Compound in the experiment “Axitinib + Dasatinib”: CNC(=O)c1ccccc1Sc1ccc2c(/C=C/c3ccccn3)n[nH]c2c1 [Axitinib] + Cc1nc(Nc2ncc(C(=O)Nc3c(C)cccc3Cl)s2)cc(N2CCN(CCO)CC2)n1 [Dasatinib] (partner 0.075 µM)
The procedure, abridged: as §1

Compound in the experiment “Axitinib + Phenformin”: CNC(=O)c1ccccc1Sc1ccc2c(/C=C/c3ccccn3)n[nH]c2c1 [Axitinib] + N=C(N)NC(=N)NCCc1ccccc1 [Phenformin] (partner 250 µM)
The procedure, abridged:
as §1

As for NCI-H3122, the relative viability was found to be 0.429 in the experiment with Bemcentinib + Decitabine (first compound 0.04 µM); 0.385 in the experiment with Bemcentinib + Decitabine (first compound 0.1265 µM); 0.456 in the experiment with Bemcentinib + Decitabine (first compound 0.4 µM); 0.449 with Bemcentinib + Decitabine (first compound 1.265 µM); 0.491 with Bemcentinib + Decitabine (first compound 4 µM); 0.976 with Axitinib + AZD7762 (first compound 0.005 µM). Also, the relative viability with Axitinib + AZD7762 (first compound 0.01581 µM) turned out to be 0.991; in the experiment with Axitinib + AZD7762 (first compound 0.05 µM) it was 0.892; with Axitinib + AZD7762 (first compound 0.1581 µM) it was 0.92; with Axitinib + AZD7762 (first compound 0.5 µM), 1.04; with Axitinib + Dasatinib (first compound 0.005 µM), 0.881; in the experiment with Axitinib + Dasatinib (first compound 0.01581 µM), 0.819. Also, the relative viability amounted to 0.895 with Axitinib + Dasatinib (first compound 0.05 µM); 0.724 with Axitinib + Dasatinib (first compound 0.1581 µM); 0.735 in the experiment with Axitinib + Dasatinib (first compound 0.5 µM); 0.347 in the experiment with Axitinib + Phenformin (first compound 0.005 µM); 0.369 in the experiment with Axitinib + Phenformin (first compound 0.01581 µM); 0.397 in the experiment with Axitinib + Phenformin (first compound 0.05 µM). Besides, the values for the relative viability with Axitinib + Phenformin (first compound 0.1581 µM) and with Axitinib + Phenformin (first compound 0.5 µM) were 0.379 and 0.415, respectively.
PC-3 [JPC-3]: the relative viability with Bemcentinib + Decitabine (first compound 0.04 µM) was 0.773; with Bemcentinib + Decitabine (first compound 0.1265 µM), 0.897; with Bemcentinib + Decitabine (first compound 0.4 µM), 0.804; with Bemcentinib + Decitabine (first compound 1.265 µM), 0.822; with Bemcentinib + Decitabine (first compound 4 µM), 0.804; with Axitinib + AZD7762 (first compound 0.005 µM), 0.835. For the same cell line, the relative viability with Axitinib + AZD7762 (first compound 0.05 µM) turned out to be 0.933; with Axitinib + AZD7762 (first compound 0.1581 µM), 0.765; with Axitinib + AZD7762 (first compound 0.5 µM), 0.781; with Axitinib + Dasatinib (first compound 0.005 µM) it was 1.07; in the experiment with Axitinib + Dasatinib (first compound 0.01581 µM), 1.01; with Axitinib + Dasatinib (first compound 0.05 µM), 1.02. Further, the relative viability with Axitinib + Dasatinib (first compound 0.1581 µM) was 1; with Axitinib + Dasatinib (first compound 0.5 µM), 1.01; in the experiment with Axitinib + Phenformin (first compound 0.005 µM) it was 0.491; in the experiment with Axitinib + Phenformin (first compound 0.01581 µM), 0.445; with Axitinib + Phenformin (first compound 0.05 µM) it was 0.493; with Axitinib + Phenformin (first compound 0.1581 µM), 0.507. Also, the relative viability with Axitinib + Phenformin (first compound 0.5 µM) was 0.539.
As to PC-14, the relative viability in the experiment with Bemcentinib + Decitabine (first compound 0.04 µM) worked out at 0.209; with Bemcentinib + Decitabine (first compound 0.1265 µM), 0.213; with Bemcentinib + Decitabine (first compound 0.4 µM) it was 0.204; with Bemcentinib + Decitabine (first compound 1.265 µM), 0.176; with Bemcentinib + Decitabine (first compound 4 µM), 0.197; with Axitinib + AZD7762 (first compound 0.005 µM), 0.306. Besides, the relative viability with Axitinib + AZD7762 (first compound 0.05 µM) amounted to 0.346; in the experiment with Axitinib + AZD7762 (first compound 0.1581 µM), 0.382; in the experiment with Axitinib + AZD7762 (first compound 0.5 µM), 0.413; with Axitinib + Dasatinib (first compound 0.005 µM) it was 0.247; with Axitinib + Dasatinib (first compound 0.01581 µM) it was 0.227; with Axitinib + Dasatinib (first compound 0.05 µM) it was 0.297. Further, the relative viability with Axitinib + Dasatinib (first compound 0.1581 µM) was 0.257; with Axitinib + Dasatinib (first compound 0.5 µM) it was 0.314; with Axitinib + Phenformin (first compound 0.005 µM), 0.645; in the experiment with Axitinib + Phenformin (first compound 0.05 µM) it was 0.714; with Axitinib + Phenformin (first compound 0.1581 µM), 0.559; with Axitinib + Phenformin (first compound 0.5 µM), 0.797.
On to RERF-LC-KJ, for which the relative viability stood at 0.676 with Bemcentinib + Decitabine (first compound 0.04 µM); 0.729 with Bemcentinib + Decitabine (first compound 0.1265 µM); 0.784 with Bemcentinib + Decitabine (first compound 0.4 µM); 0.855 with Bemcentinib + Decitabine (first compound 1.265 µM); 0.752 in the experiment with Bemcentinib + Decitabine (first compound 4 µM); 1 in the experiment with Axitinib + AZD7762 (first compound 0.005 µM). Moreover, the relative viability with Axitinib + AZD7762 (first compound 0.01581 µM) is 0.916; with Axitinib + AZD7762 (first compound 0.05 µM), 1.21; with Axitinib + AZD7762 (first compound 0.1581 µM), 0.977; with Axitinib + AZD7762 (first compound 0.5 µM), 1.01; in the experiment with Axitinib + Dasatinib (first compound 0.005 µM), 0.853; with Axitinib + Dasatinib (first compound 0.01581 µM), 0.898. Further, the relative viability with Axitinib + Dasatinib (first compound 0.05 µM) was 0.998; in the experiment with Axitinib + Dasatinib (first compound 0.1581 µM) it was 0.822; with Axitinib + Dasatinib (first compound 0.5 µM) it was 0.904; with Axitinib + Phenformin (first compound 0.005 µM), 0.462; with Axitinib + Phenformin (first compound 0.01581 µM) it was 0.445; in the experiment with Axitinib + Phenformin (first compound 0.05 µM), 0.396. Moreover, the relative viability with Axitinib + Phenformin (first compound 0.1581 µM) worked out at 0.457; with Axitinib + Phenformin (first compound 0.5 µM), 0.458.
Turning to SW 900, the relative viability with Bemcentinib + Decitabine (first compound 0.04 µM) came to 0.406; with Bemcentinib + Decitabine (first compound 0.1265 µM), 0.479; with Bemcentinib + Decitabine (first compound 0.4 µM), 0.432; with Bemcentinib + Decitabine (first compound 1.265 µM), 0.428; in the experiment with Bemcentinib + Decitabine (first compound 4 µM), 0.398; in the experiment with Axitinib + AZD7762 (first compound 0.005 µM), 0.52. Moreover, the relative viability in the experiment with Axitinib + AZD7762 (first compound 0.05 µM) came to 0.562; with Axitinib + AZD7762 (first compound 0.1581 µM) it was 0.579; in the experiment with Axitinib + AZD7762 (first compound 0.5 µM), 0.66; with Axitinib + Dasatinib (first compound 0.005 µM), 0.439; with Axitinib + Dasatinib (first compound 0.01581 µM), 0.555; with Axitinib + Dasatinib (first compound 0.05 µM), 0.663. Moreover, the relative viability in the experiment with Axitinib + Dasatinib (first compound 0.1581 µM) was 0.653; in the experiment with Axitinib + Dasatinib (first compound 0.5 µM) it was 0.709; in the experiment with Axitinib + Phenformin (first compound 0.005 µM), 0.577; with Axitinib + Phenformin (first compound 0.01581 µM), 0.411; with Axitinib + Phenformin (first compound 0.05 µM) it was 0.464; with Axitinib + Phenformin (first compound 0.1581 µM) it was 0.46. For the same cell line, in the experiment with Axitinib + Phenformin (first compound 0.5 µM), the relative viability turned out to be 0.803.
